Laboratory results: patent US6172091A, “1,2-Disubstituted cyclopropanes” (Ortho-McNeil Pharmaceutical, Inc., priority 1999, dated 2001)

Experiments:
[1] = tested on: parathyroid hormone (PTH); assay: parathyroid hormone (PTH) suppression in a rat model; format: in vivo; details: 30 mg/kg test compound, levels measured after 15 minutes; for change in vivo at 30 mg/kg: Rattus norvegicus, po, 0.25 h, read-out: In Vivo: % blood serum PTH vs. vehicle; for In Vivo: % blood serum PTH vs. vehicle: oral, 30 mg/kg
Procedure: (§1) In vitro potency is measured via calcium mobilization in a fluorescence assay using HEK 293 cells transfected to express the same calcium sensing receptor as found in the human parathyroid gland. In this assay calcium-sensing receptor agonists and antagonists are detected. The assay is conducted in a 96-well plate format with the use of FLIPR (fluorescent imaging plate reader; Molecular Devices, Sunnyvale, Calif.). The HEK 293 cell media is replaced with the fluorescence dye FLUO-3AM and Pluronic detergent in FLIPR assay buffer. Cells are incubated 60 min (in the dark, at room temperature), then washed with assay buffer and placed in FLIPR. Images are collected by FLIPR in the absence of test compound, then in the presence of test compound (at 25 µM) and then after addition of a calcium challenge (at 1 mM). In the agonist assay the difference between maximum and minimum fluorescence values is measured following test compound addition. Hits have a change in fluorescence greater than or equal to 50% of that seen with a 1 mM calcium standard. In the antagonist assay the difference between maximum and minimum fluorescence values is measured following the calcium challenge addition. When compared to challenge in the absence of test compound, hits reduce fluorescence by at least 50%. In vivo activity is measured via parathyroid hormone (PTH) supression by test compounds in a rat model. Compound is administered orally using 0.5% Tween 80 in distilled water as vehicle, with a volume of approximately 10 mL/kg body weight. Blood samples are taken at 15 minutes (and 4 h if required) post oral dosing. Serum PTH levels are determined with an immunoradiometric assay.
(§2) Not all compounds were tested in each of the screens. […] Each entry represents a mixture of cis and trans cyclopropanes (R,S; S,R; R,R; S,S) with R absolute configuration when R^3=CH3. Table 2 lists compounds that are trans at the cyclopropane (R,R; S,S) with R absolute configuration at the benzylamine position, or without stereochemistry at the benzylamine. Table 3 lists compounds with R,R absolute stereochemistry at the cyclopropane and a mixture of stereochemistry at the benzylamine position. 20. In vitro data in Table 1 is percent activation of the calcium-sensing receptor versus baseline. In vitro data in Tables 2-7 is expressed as a CS50, where potency is at 50% of the calcium standard potency, and the unit is μM. In vivo data represents % blood serum PTH vs. vehicle at 30 mg/kg test compound, levels measured after 15 minutes.

[2] = target: T1, calcium sensing receptor as found in the human parathyroid gland (Homo sapiens, UniProt P41180); assay: calcium mobilization fluorescence (FLIPR) assay, agonist mode; format: cell-based; details: transfected HEK 293 cells; 1 mM calcium standard; Tables 2-7; read-out: In Vitro: CS50, where potency is at 50% of the calcium standard potency
T1 construct: expressed in transfected cells; host or cells: HEK 293
T1 sequence (P41180 20-1078): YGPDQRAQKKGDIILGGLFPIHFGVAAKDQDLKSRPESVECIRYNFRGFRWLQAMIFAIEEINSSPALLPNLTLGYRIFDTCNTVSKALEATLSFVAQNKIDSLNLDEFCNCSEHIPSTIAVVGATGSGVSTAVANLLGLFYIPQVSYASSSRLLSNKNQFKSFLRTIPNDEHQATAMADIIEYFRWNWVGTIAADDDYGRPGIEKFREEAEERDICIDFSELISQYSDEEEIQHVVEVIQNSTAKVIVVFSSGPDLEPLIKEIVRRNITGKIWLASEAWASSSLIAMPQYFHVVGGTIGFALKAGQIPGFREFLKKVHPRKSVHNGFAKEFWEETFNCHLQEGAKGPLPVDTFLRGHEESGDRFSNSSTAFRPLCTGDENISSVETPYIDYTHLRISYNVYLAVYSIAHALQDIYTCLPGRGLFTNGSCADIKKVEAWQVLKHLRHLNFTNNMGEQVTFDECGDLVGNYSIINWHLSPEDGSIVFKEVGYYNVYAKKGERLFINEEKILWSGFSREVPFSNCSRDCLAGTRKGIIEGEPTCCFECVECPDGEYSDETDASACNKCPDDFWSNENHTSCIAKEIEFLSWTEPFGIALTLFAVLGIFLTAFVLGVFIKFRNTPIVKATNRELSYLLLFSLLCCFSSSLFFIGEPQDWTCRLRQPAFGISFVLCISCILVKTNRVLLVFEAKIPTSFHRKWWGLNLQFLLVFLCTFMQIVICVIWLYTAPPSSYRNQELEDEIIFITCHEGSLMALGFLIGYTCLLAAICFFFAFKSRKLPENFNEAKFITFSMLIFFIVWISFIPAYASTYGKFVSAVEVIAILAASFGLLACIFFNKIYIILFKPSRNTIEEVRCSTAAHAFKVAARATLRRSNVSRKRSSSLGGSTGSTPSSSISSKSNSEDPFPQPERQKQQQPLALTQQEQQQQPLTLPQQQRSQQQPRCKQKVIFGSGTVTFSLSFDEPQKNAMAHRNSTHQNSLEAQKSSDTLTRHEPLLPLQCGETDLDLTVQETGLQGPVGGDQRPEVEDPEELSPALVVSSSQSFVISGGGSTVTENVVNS
Procedure: as §1, §2

SMILES | change in vivo at 30 mg/kg [1] [%] | EC50 [2] [µM] | In Vivo: % blood serum PTH vs. vehicle [1]
COc1cccc(CNC[C@@H]2C[C@H]2c2ccccc2)c1 (relative stereo) [Compound 31] | -26.5 | > 25 | 
COc1cccc([C@@H](C)NCC2CC2c2ccccn2)c1 (some centres unmarked) [Compound 9] |  | 6.5 | 
COc1cccc([C@@H](C)N(C[C@@H]2C[C@H]2c2ccccc2)C(C)=O)c1 [Compound 53] | -6.4 | > 25 | 
COc1cccc([C@@H](C)NCC2CC2c2ccccc2F)c1 (single isomer, unassigned) [Compound 18] |  | 11.3 | -83.9%
C[C@@H](NC[C@@H]1C[C@H]1c1ccccc1)c1cccc(OC2CCCC2)c1 [Compound 52] | 26.6 | 12.2 | 
COc1cccc([C@@H](C)NCC2CC2c2cccc(F)c2)c1 (some centres unmarked) [Compound 74] |  |  | -2.6%
COc1cccc([C@@H](C)NC[C@H]2C[C@@H]2c2cccc(F)c2)c1 [Compound 71] | -78.7 |  | 
COc1cccc(C(C)(C)NC[C@@H]2C[C@H]2c2ccccc2)c1 [Compound 44] | -25.8 | > 25 | 
CC(C)Oc1cccc([C@@H](C)NC[C@@H]2C[C@H]2c2ccccc2)c1 [Compound 51] | -7.3 | > 25 | 
COc1cccc([C@H](C)NC[C@H]2C[C@H]2c2ccccc2)c1 [Compound 65] | -38.8 | > 25 | 
COc1cccc([C@@H](C)NCC2CC2c2ccsc2)c1 (some centres unmarked) [Compound 26] |  | 3.4 | 
COc1cccc([C@@H](C)NCC2CC2c2cccn2C)c1 (some centres unmarked) [Compound 27] |  | 7.8 | 
COc1cccc([C@@H](C)NC[C@@H]2C[C@H]2c2cccc(F)c2)c1 [Compound 22] |  | 9.3 | -93.4%
COC(=O)N(C[C@@H]1C[C@H]1c1ccccc1)[C@H](C)c1cccc(OC)c1 [Compound 56] | -40.9 | > 25 | 
COc1cccc([C@@H](C)N(C[C@@H]2C[C@H]2c2ccccc2)C(=O)C(C)(C)C)c1 [Compound 55] |  | > 25 | 
COc1cccc([C@@H](C)NCC2CC2(C)c2ccccc2)c1 (some centres unmarked) [Compound 68] | -94.5 | > 25 | 
COc1cccc([C@H](C)NCC2CC2c2cccc(F)c2)c1 (some centres unmarked) [Compound 77] |  |  | +2.1%
COc1cccc([C@@H](C)NCC2CC2c2cccs2)c1 (some centres unmarked) [Compound 25] | -89 | 7.1 | 
COc1cccc([C@@H](C)NCC2CC2c2cccnc2)c1 (some centres unmarked) [Compound 10] |  | 37.1 | 
CCc1cccc(C(C)NC[C@@H]2C[C@H]2c2ccccc2)c1 (some centres unmarked) [Compound 42] | -78.9 | > 25 | 
COc1cccc([C@@H](C)NCC2CC2c2c(F)cccc2F)c1 (some centres unmarked) [Compound 24] | -85.4 | 11.9 | 
COc1cccc([C@@H](C)NCC2CC2c2cccc(C(F)(F)F)c2)c1 (some centres unmarked) [Compound 15] | 4.2 | 13.5 | 
COc1cccc([C@@H](C)N(C[C@@H]2C[C@H]2c2ccccc2)C(=O)OCC(C)C)c1 [Compound 57] | -5.3 | > 25 | 
c1ccc([C@@H]2C[C@H]2CNCc2cccnc2)cc1 (relative stereo) [Compound 29] | 87.8 | > 25 | 

SMILES | change in vivo at 30 mg/kg [1] [%] | EC50 [2] [µM] | In Vivo: % blood serum PTH vs. vehicle [1]
COc1cccc([C@@H](C)NC[C@@H]2C[C@@H]2c2cc(C)ccc2C)c1 [Compound 70] | -24.7 | 21 | 
COc1cccc([C@@H](C)NCC2CC2c2cccc(C)c2)c1 (some centres unmarked) [Compound 13] | -98.2 | 9.5 | 
CCOc1cccc([C@@H](C)NC[C@@H]2C[C@H]2c2ccccc2)c1 [Compound 50, N-((R,R)-2-phenylcyclopropanylmethyl)-1-(R)-(3-ethoxyphenyl)ethylamine] | -57 | 11.9 | 
CCC(NC[C@@H]1C[C@H]1c1ccccc1)c1cccc(OC)c1 (stereo partly drawn) [Compound 43, N-((R,R)-2-phenylcyclopropanylmethyl)-1-(3-methoxyphenyl)propylamine] | -6.3 | > 25 | 
COc1cccc([C@@H](C)NC[C@H]2C[C@H]2c2cc(C)ccc2C)c1 [Compound 69] | -53.9 | > 25 | 
COc1cccc([C@@H](C)NC[C@@H]2C[C@H]2c2cccc(F)c2)c1 (mixture of isomers) [Compound 20, N-(trans-2-(3-fluorophenyl)cyclopropanylmethyl)-1-(R)-(3-methoxyphenyl)ethylamine] |  | 11 | -95.2%
COc1cccc([C@@H](C)NCC2CC2c2ccccc2C(F)(F)F)c1 (some centres unmarked) [Compound 14] | -34.7 | 52.2 | 
COc1cccc([C@@H](C)NCC2CC2c2ccccc2Cl)c1 (some centres unmarked) [Compound 4] | -11.9 |  | 
COc1cccc([C@@H](C)NCC2CC2c2ccccc2)c1 (some centres unmarked) [Compound 3] | -62.1 |  | 
COc1cccc([C@@H](C)NCC2CC2c2cc(C)ccc2C)c1 (some centres unmarked) [Compound 1] |  |  | +31.4%
COc1cccc([C@H](C)NC[C@@H]2C[C@H]2c2cccc(F)c2)c1 [Compound 76] | 16.8 |  | 
COc1cccc([C@@H](C)NCC2CC2c2cccc(F)c2)c1 (some centres unmarked) [Compound 73] |  |  | -52.5%
COc1cccc([C@@H](C)NCC2CC2c2ccc(C)s2)c1 (some centres unmarked) [Compound 36] | -34.2 |  | 
COc1cccc([C@H](C)NCC2CC2c2cccc(F)c2)c1 (some centres unmarked) [Compound 78] |  |  | +21.4%
COc1cccc([C@@H](C)NC[C@H]2C[C@@H]2c2cccc(F)c2)c1 [Compound 21] |  | 10.9 | 
COc1cccc([C@@H](C)NCC2CC2c2sccc2C)c1 (some centres unmarked) [Compound 38] | -51 |  | 
COc1cccc([C@@H](C)NCC2CC2c2cc(Br)cs2)c1 (some centres unmarked) [Compound 37] | -24.8 |  | 
COc1cccc([C@@H](C)NCC2CC2c2ccc([N+](=O)[O-])cc2[N+](=O)[O-])c1 (some centres unmarked) [Compound 34] |  | > 25 | 
COc1cccc([C@@H](C)NCC2CC2c2ccc(Cl)cc2)c1 (some centres unmarked) [Compound 6] | -9.3 |  | 
COc1cccc([C@H](C)NC[C@H]2C[C@@H]2c2cccc(F)c2)c1 [Compound 75] | -0.9 |  | 
CC(NC[C@@H]1C[C@H]1c1ccccc1)c1cccc(OC(F)(F)F)c1 (some centres unmarked) [Compound 39] | 0 |  | 
COc1cccc([C@@H](C)NCC2CC2c2ccc(Cl)s2)c1 (some centres unmarked) [Compound 35] | -15.4 |  | 
COc1cccc([C@@H](C)NCC2CC2c2ccncc2)c1 (some centres unmarked) [Compound 11] |  | > 25 | 
COc1cccc([C@@H](C)NC[C@@H]2C[C@H]2c2cccc(F)c2)c1 [Compound 72] |  |  | -93.4%
